Laboratory results: PubChem BioAssay AID248 (DTP/NCI, 2004)
“And” between values parts separate entries of the source, which are not always exact repeats. Identical values can stand only once. Inconclusive results and toxic doses are left out.

System: L1210 leukemia ip in BDF1 mice, survival T/C
Assay: NCI In Vivo Anticancer Drug Screen. Data for tumor model L1210 Leukemia (intraperitoneal) in B6D2F1 (BDF1) mice
Conditions: endpoint: mean survival time, higher = longer survival
Summary of the method: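 Survival endpoint. Drug-treated group vs vehicle group, expressed as T divided by C. Tumor passaged by transplantation.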

[1] = dose: 50.0 mg/kg/injection, schedule: Q01DX009 (ip), vehicle: saline with Tween-80
[2] = dose: 100.0 mg/kg/injection, schedule: Q04DX003 (ip), vehicle: saline with Tween-80
[3] = dose: 200.0 mg/kg/injection, schedule: Q04DX003 (ip), vehicle: saline with Tween-80
[4] = dose: 400.0 mg/kg/injection, schedule: Q04DX003 (ip), vehicle: saline with Tween-80
[5] = dose: 100.0 mg/kg/injection, schedule: Q01DX009 (ip), vehicle: saline
[6] = dose: 200.0 mg/kg/injection, schedule: Q01DX009 (ip), vehicle: saline
[7] = dose: 400.0 mg/kg/injection, schedule: Q01DX009 (ip), vehicle: saline
[8] = dose: 100.0 mg/kg/injection, schedule: Q04DX003 (ip), vehicle: Klucel (hydroxypropylcellulose) (HPC)
[9] = dose: 100.0 mg/kg/injection, schedule: Q01DX001 (ip), vehicle: carboxymethylcellulose (CMC)
[10] = dose: 200.0 mg/kg/injection, schedule: Q01DX001 (ip), vehicle: carboxymethylcellulose (CMC)
[11] = dose: 400.0 mg/kg/injection, schedule: Q01DX001 (ip), vehicle: carboxymethylcellulose (CMC)
[12] = dose: 100.0 mg/kg/injection, schedule: Q01DX001 (ip), vehicle: saline
[13] = dose: 200.0 mg/kg/injection, schedule: Q01DX001 (ip), vehicle: saline
[14] = dose: 400.0 mg/kg/injection, schedule: Q01DX001 (ip), vehicle: saline
[15] = dose: 75.0 mg/kg/injection, schedule: Q01DX001 (ip), vehicle: saline
[16] = dose: 150.0 mg/kg/injection, schedule: Q01DX001 (ip), vehicle: saline
[17] = dose: 300.0 mg/kg/injection, schedule: Q01DX001 (ip), vehicle: saline
[18] = dose: 50.0 mg/kg/injection, schedule: Q01DX001 (ip), vehicle: carboxymethylcellulose (CMC)
[19] = dose: 100.0 mg/kg/injection, schedule: Q01DX009 (ip), vehicle: saline with Tween-80
[20] = dose: 100.0 mg/kg/injection, schedule: Q04DX002 (ip), vehicle: saline
[21] = dose: 200.0 mg/kg/injection, schedule: Q04DX002 (ip), vehicle: saline
[22] = dose: 400.0 mg/kg/injection, schedule: Q04DX002 (ip), vehicle: saline
[23] = dose: 100.0 mg/kg/injection, schedule: Q01DX009 (ip), vehicle: other
[24] = dose: 400.0 mg/kg/injection, schedule: Q01DX009 (ip), vehicle: other
[25] = dose: 50.0 mg/kg/injection, schedule: Q01DX001 (ip), vehicle: saline

CCCN(CCC)CC(=O)N1CC(=O)Nc2ccccc21
T/C (dose: 25.0 mg/kg/injection, schedule: Q01DX009 (ip), vehicle: acetone): 98 % of control | T/C (dose: 50.0 mg/kg/injection, schedule: Q01DX009 (ip), vehicle: acetone): 96 % of control | T/C (dose: 100.0 mg/kg/injection, schedule: Q01DX009 (ip), vehicle: acetone): 95 % of control | T/C (dose: 100.0 mg/kg/injection, schedule: Q04DX003 (ip), vehicle: acetone): 103 % of control | T/C (dose: 200.0 mg/kg/injection, schedule: Q04DX003 (ip), vehicle: acetone): 103 % of control

CC(=O)Nc1ccc(OC(=O)Nc2cccc(Cl)c2C)cc1
T/C [1]: 88 % of control and 92 % of control | T/C (dose: 100.0 mg/kg/injection, schedule: Q01DX001 (ip), vehicle: saline with Tween-80): 92 % of control | T/C (dose: 100.0 mg/kg/injection, schedule: Q04DX002 (ip), vehicle: saline with Tween-80): 87 % of control and 89 % of control | T/C [2]: 93 % of control | T/C (dose: 200.0 mg/kg/injection, schedule: Q01DX001 (ip), vehicle: saline with Tween-80): 94 % of control | T/C (dose: 200.0 mg/kg/injection, schedule: Q04DX002 (ip), vehicle: saline with Tween-80): 86 % of control | T/C [3]: 87 % of control | T/C (dose: 400.0 mg/kg/injection, schedule: Q01DX001 (ip), vehicle: saline with Tween-80): 100 % of control | T/C (dose: 400.0 mg/kg/injection, schedule: Q01DX009 (ip), vehicle: saline with Tween-80): 101 % of control | T/C (dose: 400.0 mg/kg/injection, schedule: Q04DX002 (ip), vehicle: saline with Tween-80): 96 % of control and 86 % of control | T/C [4]: 90 % of control

O=C1CCC(=O)N1O
T/C (dose: 50.0 mg/kg/injection, schedule: Q01DX Z (ip), vehicle: saline): 94 % of control | T/C [5]: 93 % of control | T/C (dose: 100.0 mg/kg/injection, schedule: Q01DX Z (ip), vehicle: saline): 93 % of control | T/C [6]: 90 % of control | T/C (dose: 200.0 mg/kg/injection, schedule: Q01DX Z (ip), vehicle: saline): 96 % of control | T/C [7]: 92 % of control | T/C (dose: 400.0 mg/kg/injection, schedule: Q01DX Z (ip), vehicle: saline): 93 % of control

COC(=O)C(CSC(=O)c1ccccc1)NC(=O)c1ccccc1 (configuration not stated)
T/C (dose: 25.0 mg/kg/injection, schedule: Q04DX003 (ip), vehicle: Klucel (hydroxypropylcellulose) (HPC)): 100 % of control | T/C (dose: 50.0 mg/kg/injection, schedule: Q04DX003 (ip), vehicle: Klucel (hydroxypropylcellulose) (HPC)): 110 % of control | T/C (dose: 100.0 mg/kg/injection, schedule: Q01DX001 (ip), vehicle: Klucel (hydroxypropylcellulose) (HPC)): 97 % of control | T/C [8]: 100 % of control | T/C (dose: 200.0 mg/kg/injection, schedule: Q01DX001 (ip), vehicle: Klucel (hydroxypropylcellulose) (HPC)): 100 % of control | T/C (dose: 400.0 mg/kg/injection, schedule: Q01DX001 (ip), vehicle: Klucel (hydroxypropylcellulose) (HPC)): 101 % of control

CCCCC(=O)N/N=C\c1cc(Cl)ccc1[N+](=O)[O-]
T/C [9]: 96 % of control | T/C [10]: 91 % of control | T/C [11]: 96 % of control

O=C(CC1CC2CCC1C2)Nc1ccccc1 (configuration not stated)
T/C [12]: 96 % of control | T/C [13]: 111 % of control | T/C [14]: 100 % of control

Cc1ccc2c(c1)c(C)c(C)c(=O)n2C
T/C [12]: 98 % of control | T/C [13]: 93 % of control | T/C [14]: 96 % of control

CC(C)(CO)NCc1ccccc1F
T/C [15]: 103 % of control | T/C [16]: 104 % of control | T/C [17]: 98 % of control

Nc1ncnc(N)c1NC(=O)c1ccc(C(=O)c2ccccc2)cc1
T/C [8]: 100 % of control | T/C (dose: 200.0 mg/kg/injection, schedule: Q04DX003 (ip), vehicle: Klucel (hydroxypropylcellulose) (HPC)): 94 % of control | T/C (dose: 400.0 mg/kg/injection, schedule: Q04DX003 (ip), vehicle: Klucel (hydroxypropylcellulose) (HPC)): 94 % of control

O=C(O)C1(Nc2ccc(-c3ccc(NC4(C(=O)O)CCCC4)cc3)cc2)CCCC1
T/C [18]: 90 % of control | T/C [9]: 90 % of control | T/C [10]: 88 % of control | T/C [11]: 88 % of control

CCCCCC1SC1CC1SC1CCCCCCCC(=O)N1CCOCC1 (configuration not stated)
T/C [19]: 98 % of control

Nc1nc2ncc(NCc3ccc(C(=O)NC(CCC(=O)O)C(=O)O)cc3)nc2c(=O)[nH]1 (configuration not stated)
T/C [12]: 92 % of control | T/C [5]: 103 % of control | T/C [20]: 96 % of control and 100 % of control | T/C [13]: 91 % of control | T/C [6]: 100 % of control | T/C [21]: 100 % of control and 102 % of control | T/C [14]: 100 % of control | T/C [7]: 96 % of control | T/C [22]: 100 % of control and 105 % of control

Nc1nc(SCc2ccccc2)c2ncn(C3OC(CO)CC3O)c2n1 (configuration not stated)
T/C (dose: 25.0 mg/kg/injection, schedule: Q01DX009 (ip), vehicle: other): 113 % of control | T/C [18]: 110 % of control | T/C (dose: 50.0 mg/kg/injection, schedule: Q01DX009 (ip), vehicle: other): 158 % of control | T/C [9]: 116 % of control | T/C [23]: 158 % of control | T/C [11]: 150 % of control | T/C [24]: 95 % of control | T/C (dose: 600.0 mg/kg/injection, schedule: Q01DX001 (ip), vehicle: carboxymethylcellulose (CMC)): 155 % of control

Cc1ccc(S(=O)(=O)NC(=S)Nc2ccccc2)cc1
T/C [25]: 98 % of control | T/C (dose: 50.0 mg/kg/injection, schedule: Q01DX009 (ip), vehicle: saline): 102 % of control | T/C [12]: 101 % of control | T/C [5]: 95 % of control | T/C [13]: 101 % of control | T/C [6]: 109 % of control

CN(C)C(=O)c1cc[n+](Cc2ccc(Cl)c(Cl)c2)cc1
T/C (dose: 100.0 mg/kg/injection, schedule: Q04DX003 (ip), vehicle: saline): 105 % of control

NCCc1ccc(Nc2ccnc3cc(Cl)ccc23)cc1
T/C [15]: 109 % of control | T/C [16]: 101 % of control | T/C [17]: 98 % of control

CN(C)CCCN1CCC2(CC1)C(C#N)C(=O)NC(=O)C2C#N (configuration not stated)
T/C [20]: 92 % of control | T/C [21]: 100 % of control | T/C [22]: 111 % of control

OC1(Cc2ccccc2)CCCCCC1
T/C (dose: 100.0 mg/kg/injection, schedule: Q01DX005 (ip), vehicle: other): 118 % of control | T/C [23]: 103 % of control | T/C (dose: 200.0 mg/kg/injection, schedule: Q01DX005 (ip), vehicle: other): 93 % of control | T/C (dose: 200.0 mg/kg/injection, schedule: Q01DX009 (ip), vehicle: other): 118 % of control | T/C (dose: 400.0 mg/kg/injection, schedule: Q01DX005 (ip), vehicle: other): 93 % of control | T/C [24]: 100 % of control

S=C=Nc1cccc2c(N=C=S)cccc12
T/C [25]: 98 % of control | T/C [12]: 98 % of control | T/C [13]: 110 % of control | T/C [14]: 119 % of control

Cc1c(Cl)c(Cl)c(Cl)c(Cl)c1Cl
T/C [2]: 101 % of control | T/C [3]: 95 % of control | T/C [4]: 95 % of control

CCCCCCOC(=O)C(O)c1ccccc1 (configuration not stated)
T/C [1]: 95 % of control | T/C [19]: 98 % of control | T/C (dose: 200.0 mg/kg/injection, schedule: Q01DX009 (ip), vehicle: saline with Tween-80): 95 % of control

Cc1cc(NCCN(C(C)C)C(C)C)nc(Nc2nc3ccc(Cl)cc3[nH]2)n1
T/C (dose: 12.5 mg/kg/injection, schedule: Q01DX009 (ip), vehicle: saline with Tween-80): 98 % of control | T/C [1]: 91 % of control
